# Test results from US6753310B1, “Neovascular-specific peptides” (Otsuka Pharmaceutical Co., Ltd., priority 1998, dated 2004).
# System: Meth A sarcoma
# Experiment: Antitumor effect of adriamycin-including peptide-modified liposomes, tail vein administration
# Assay type: in vivo, BALB/c mice
# Conditions: FIG. 15; after three tail vein administrations on days 6, 9 and 12
# Description: Solid tumor-bearing mice were prepared by subcutaneously administering Meth A sarcoma cells (1×10^6 cells/mouse) into the left flank of five-week-old BALB/c male mice (Japan SLC). The day of implantation was taken as day 1 and, on days 6, 9 and 12, the 0.3 M glucose solution (solvent) as a control, adriamycin (ADR)-including control liposomes (liposomes including the anticancer agent but free of any angiogenesis-specific peptide of the invention), a free ADR solution prepared by dissolving the anticancer agent ADR in a concentration of 15 mg/kg (mouse) in 0.3 M glucose, and the ADR-including, angiogenesis-specific peptide-modified liposomes of the invention as prepared above in (1) were respectively administered into the tail vein. In the test, 5 tumor-bearing mice were used in each group.
# The antitumor effect of each agent administered was evaluated by examining, from 5 days after tumor implantation, the tumor volume as an indicator of tumor growth and the mouse body weight change as well as the survival period (days) as an indicator of side effect, in a similar manner as in Example 4 (2).
# In the figure, the ordinate denotes the tumor volume and the ascissa denotes the number of days after tumor implantation. […]
structure (smiles),measurement,value
"COc1cccc2c1C(=O)c1c(O)c3c(c(O)c1C2=O)C[C@@](O)(C(=O)CO)C[C@@H]3O[C@H]1C[C@H](N)[C@H](O)[C@H](C)O1 [free ADR solution, adriamycin]",death of mice,all mice died
